Measurements from patent US20040126421A1, “Liposomal system and method of using same” (priority 2002, published 2004).

Test system: CD8+ T cells recognizing the ova peptide (SIINFEKL)
Experiment: IFN-g ELISPOT of lymph node CD8+ T cells after vaccination
Assay type: in vivo, C57BL/6 mice
Description: In order to test the potency of the Ubiquisome vaccine, the liposomes of example 1 were used as a vaccine. For vaccination, mice received a single administration of […] of liposomes containing 2.5 mg POPE and approximately […] peptide antigen. The vaccine was injected bilaterally in mouse tibealis anterior muscle ([…] per muscle).
For ELISPOT analysis, mice were sacrificed 5 days following vaccination and inguinal and popliteal lymph nodes were harvested. CD8+ T cells from lymph nodes were isolated using the MACS magnetic cell separation technique. 1×10^5 CD8+ T cells were plated per well in 96 well IP plates. Ova (SIINFEKL, Seq ID No. 3) or irrelevant peptide-pulsed EL4 lymphoma cells were irradiated and plated over CD8+ T cells at density of 10×10^4 cells/well. Following 20 h incubation and assay development, IFN-g secreting cells were visualized as brown spots on the IP membrane.

For monophosphoryl Lipid A [MPL], which “CD8+ T cell response with increasing amounts of MPL in the bilayer” value is on record?
The value was “proportionally stronger CD8+ T cell responses”.
